TGI and GI50 data for 8 molecules are collected here from PubChem BioAssay (NCI).

Some test systems named below: LOX IMVI melanoma; A498 renal; BT-549 breast; OVCAR-3 ovarian; NCI/ADR-RES ovarian; HCC-2998 colon; EKVX NSCLC; HOP-62 NSCLC; OVCAR-4 ovarian; A549 NSCLC.
Test in all cases: inhibition of tumour cell growth, NCI panel, 48 h

“And” between values parts separate entries of the source, which are not always exact repeats. Identical values can stand only once.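 48-hour exposure; five concentrations; linearly interpolated endpoints. GI50: concentration for 50% inhibition of growth. TGI: concentration producing complete growth inhibition.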

`C=C1C(=O)O[C@@H]2C[C@@]3(C)CCC[C@H](C)C3=C[C@H]12`: the TGI in the test on LOX IMVI melanoma was 22.9 µM; in the test with A498 renal, 24.9 µM; with BT-549 breast, 15.7 µM; with OVCAR-3 ovarian it was 19.5 µM; with NCI/ADR-RES ovarian, 27.9 µM; in the test with HCC-2998 colon, 29.1 µM. Besides, the TGI with EKVX NSCLC is 28.2 µM; in the test on HOP-62 NSCLC, 24.7 µM; with OVCAR-4 ovarian, 17.6 µM; in the test on A549 NSCLC it was 31 µM.

As for `O=C(CN1CCN(c2ncnc3ccccc23)CC1)Nc1ccc(Cl)cc1C(=O)c1ccccc1Cl`, the GI50 in the test on LOX IMVI melanoma is 0.207 µM; in the test on A498 renal, 1.5 µM; in the test with BT-549 breast, 0.239 µM; in the test with OVCAR-3 ovarian, 0.273 µM; in the test with NCI/ADR-RES ovarian it was 3.12 µM; in the test with HCC-2998 colon, 1.79 µM. Also, the GI50 was 2.74 µM in the test with EKVX NSCLC, 0.626 µM in the test on HOP-62 NSCLC, 1.32 µM in the test on OVCAR-4 ovarian and 2.66 µM in the test on A549 NSCLC. Further, the TGI worked out at 0.471 µM with LOX IMVI melanoma; 3.69 µM in the test with A498 renal; 0.618 µM in the test on BT-549 breast; 0.824 µM with OVCAR-3 ovarian; 16.3 µM in the test on NCI/ADR-RES ovarian; 4.96 µM in the test with HCC-2998 colon. Also, the TGI in the test with EKVX NSCLC is 7.27 µM; with HOP-62 NSCLC it was 6.07 µM; with OVCAR-4 ovarian, 9.36 µM; in the test with A549 NSCLC, greater than 100 µM.

Turning to `Cc1nn(-c2nc3ccccc3s2)c(C)c1Oc1ccccc1O`, the GI50 in the test with LOX IMVI melanoma is 2.87 µM; in the test on A498 renal it was 11.4 µM; with BT-549 breast it was 12 µM; with OVCAR-3 ovarian it was 9.98 µM; with NCI/ADR-RES ovarian it was 3.6 µM; in the test on HCC-2998 colon it was 5.73 µM. Besides, the GI50 in the test with EKVX NSCLC is 10.4 µM; in the test with HOP-62 NSCLC, 10.6 µM; in the test on OVCAR-4 ovarian, 10.3 µM; in the test on A549 NSCLC, 6.14 µM. The TGI in the test on LOX IMVI melanoma stood at 16.9 µM; in the test with A498 renal, 23.6 µM; in the test with BT-549 breast it was 25.5 µM; in the test with OVCAR-3 ovarian it was 21.5 µM; with NCI/ADR-RES ovarian it was 23.3 µM; with HCC-2998 colon, 18.9 µM. For the same molecule, the TGI with EKVX NSCLC was determined as 22.3 µM; in the test with HOP-62 NSCLC, 23.7 µM; with OVCAR-4 ovarian it was 29.5 µM; in the test with A549 NSCLC, 22.5 µM.

For `CCC(C)(C)C(=O)O[C@H]1C[C@@H](C)C=C2C=C[C@H](C)[C@H](CC[C@@H]3C[C@@H](O)CC(=O)O3)[C@H]21`, the GI50 in the test on LOX IMVI melanoma was 0.39 µM; in the test on A498 renal, 0.156 µM; in the test on BT-549 breast, 4.61 µM; with OVCAR-3 ovarian, 8.77 µM; with NCI/ADR-RES ovarian, 0.614 µM; in the test on HCC-2998 colon it was 7.89 µM. Further, the GI50 with EKVX NSCLC is 2.78 µM; with HOP-62 NSCLC it was 7.37 µM; with OVCAR-4 ovarian, 6.1 µM; in the test on A549 NSCLC, 6.79 µM. The TGI in the test with LOX IMVI melanoma was 6.43 µM; in the test with BT-549 breast it was 18.2 µM; with OVCAR-3 ovarian it was 21.4 µM and > 30 µM; with NCI/ADR-RES ovarian it was 12.1 µM; in the test on HCC-2998 colon it was 22.1 µM and > 30 µM; in the test on EKVX NSCLC, 19.3 µM and > 30 µM. In addition, the TGI with HOP-62 NSCLC was 20.3 µM and > 30 µM; in the test with OVCAR-4 ovarian, 20.5 µM and > 30 µM; with A549 NSCLC it was 20.4 µM and 18.8 µM.

Consider `Oc1ccc2cc(Br)ccc2c1-c1c(O)ccc2cc(Br)ccc12`, for which the GI50 in the test on LOX IMVI melanoma was 1.81 µM; in the test on A498 renal, 2.95 µM; in the test on BT-549 breast it was 3.86 µM; with OVCAR-3 ovarian it was 3.21 µM; in the test with NCI/ADR-RES ovarian, 2.97 µM; with HCC-2998 colon, 2.22 µM. The GI50 in the test on EKVX NSCLC was 3.54 µM; with HOP-62 NSCLC, 2.62 µM; with OVCAR-4 ovarian, 4.89 µM; in the test on A549 NSCLC it was 3.78 µM. Besides, the TGI came out at 3.41 µM with LOX IMVI melanoma; 10.3 µM with A498 renal; 12.4 µM with BT-549 breast; 9.77 µM in the test on OVCAR-3 ovarian; 9.22 µM with NCI/ADR-RES ovarian; 4.8 µM with HCC-2998 colon. The TGI in the test with EKVX NSCLC came to 13.5 µM; in the test with HOP-62 NSCLC, 11.1 µM; with OVCAR-4 ovarian, 14.6 µM; in the test on A549 NSCLC, 13.1 µM.

Consider `COc1ccccc1OCC(=O)Nc1sc2c(c1C(N)=O)CCC2`, for which the GI50 with LOX IMVI melanoma, with A498 renal, in the test with BT-549 breast, in the test with OVCAR-3 ovarian, in the test on NCI/ADR-RES ovarian and in the test on HCC-2998 colon was greater than 100 µM in each case. The GI50 is greater than 100 µM in the test on EKVX NSCLC, greater than 100 µM with HOP-62 NSCLC, greater than 100 µM in the test with OVCAR-4 ovarian and 32.4 µM in the test on A549 NSCLC. The TGI in the test with LOX IMVI melanoma, in the test with A498 renal, with BT-549 breast, in the test with OVCAR-3 ovarian, in the test with NCI/ADR-RES ovarian and in the test with HCC-2998 colon was greater than 100 µM in each case. For the same molecule, the TGI in the test with EKVX NSCLC, in the test on HOP-62 NSCLC, in the test on OVCAR-4 ovarian and in the test on A549 NSCLC was greater than 100 µM in each case.

Consider `COc1ccc(CCN2C(=O)C=CC2=O)cc1OC`, for which the TGI in the test on LOX IMVI melanoma was found to be 36.9 µM; in the test with A498 renal, 33.1 µM; with BT-549 breast, 35.3 µM; in the test on OVCAR-3 ovarian, 36.4 µM; in the test with NCI/ADR-RES ovarian, 74.5 µM; in the test with HCC-2998 colon it was 34.8 µM. The TGI was determined as 41.1 µM with EKVX NSCLC, 53.8 µM in the test with HOP-62 NSCLC, 5.07 µM in the test with OVCAR-4 ovarian and 50.2 µM with A549 NSCLC.

Turning to `COc1ccc(N(CC(=O)NCCC[Te]c2ccccc2)C(=O)c2ccccc2)cc1`, the GI50 is 3.69 µM in the test on LOX IMVI melanoma; 2.17 µM with A498 renal; 2.39 µM with BT-549 breast; 5.75 µM in the test with OVCAR-3 ovarian; 3.23 µM in the test on NCI/ADR-RES ovarian; 3.03 µM in the test on HCC-2998 colon. For the same molecule, the GI50 was 0.407 µM with EKVX NSCLC, 2.41 µM with HOP-62 NSCLC, 11.9 µM in the test with OVCAR-4 ovarian and 0.382 µM in the test on A549 NSCLC. In addition, the TGI was 14.3 µM with LOX IMVI melanoma; 5.35 µM with A498 renal; 8.68 µM in the test on BT-549 breast; 19.8 µM with OVCAR-3 ovarian; 10.8 µM in the test with NCI/ADR-RES ovarian; 8.21 µM in the test with HCC-2998 colon. Moreover, the TGI with EKVX NSCLC was determined as 5.27 µM; in the test on HOP-62 NSCLC, 5.32 µM; in the test with OVCAR-4 ovarian it was 25.2 µM; in the test on A549 NSCLC it was 2.14 µM.
